Data published in patent publication US11939304B1, “Ethyl 6-(5-(3-fluorophenyl)-4-phenyl-4H-1,2,4-triazol-3-ylthio)hexanoate as an antimicrobial compound” (KING FAISAL UNIVERSITY, priority 2023, dated 2024).

Experiments:
Bacillus cereus = assay: agar plate disc-diffusion, antibacterial inhibition zone; type: cell-based; settings: nutrient agar, 37° C., 48 hours, DMSO zone subtracted
Experimental: (§1) The agar plate disc-diffusion method was applied. […] The discs were then placed onto the surface of agar plates (nutrient agar for bacteria and Sabouraud's dextrose agar for fungi) seeded with the test organism. Each plate contained 15 mL of the agar medium, previously seeded with 0.2 mL of the broth culture of each organism pregrown for 18 hours. The plates were incubated at 37° C. for 48 hours, and 72 hours for fungi. The inhibition zones were measured in mm. Discs impregnated with DMSO were used as a control, and its inhibition zone was subtracted from the tested compound actual inhibition zone.

Escherichia coli = assay: as above; type: cell-based; settings: nutrient agar, 37° C., 48 hours, DMSO zone subtracted
Experimental: as §1

Pseudomonas aeruginosa = assay: as above; type: cell-based; settings: nutrient agar, 37° C., 48 hours, DMSO zone subtracted
Experimental: as §1

Staphylococcus aureus = assay: as above; type: cell-based; settings: nutrient agar, 37° C., 48 hours, DMSO zone subtracted
Experimental: as §1

Aspergillus flavus = assay: agar plate disc-diffusion, antifungal inhibition zone; type: cell-based; settings: Sabouraud's dextrose agar, 37° C., 72 hours, DMSO zone subtracted
Experimental: as §1

[1] = system: Chrysosporium keratinophilum; assay: as above; type: cell-based; settings: Sabouraud's dextrose agar, 37° C., 72 hours, DMSO zone subtracted
Experimental: as §1

[2] = A = concentration of comp. = 10,000 μL
[3] = B = concentration of comp. = 30,000 μL
[4] = C = concentration of comp. = 50,000 μL

Compound: CCOC(=O)CCCCCSc1nnc(-c2cccc(F)c2)n1-c1ccccc1 [III, ethyl 6-(5-(3-fluorophenyl)-4-phenyl-4H-1,2,4-triazol-3-ylthio)hexanoate]
- inhibition zone, Bacillus Cereus, A (Bacillus cereus; [2]): 28 mm
- inhibition zone, Bacillus Cereus, B (Bacillus cereus; [3]): 30 mm
- inhibition zone, Bacillus Cereus, C (Bacillus cereus; [4]): 41 mm
- inhibition zone, Escherichia coli, A (Escherichia coli; [2]): 27 mm
- inhibition zone, Escherichia coli, B (Escherichia coli; [3]): 35 mm
- inhibition zone, Escherichia coli, C (Escherichia coli; [4]): 50 mm
- inhibition zone, Pseudomonas aeruginosa, A (Pseudomonas aeruginosa; [2]): 26 mm
- inhibition zone, Pseudomonas aeruginosa, B (Pseudomonas aeruginosa; [3]): 29 mm
- inhibition zone, Pseudomonas aeruginosa, C (Pseudomonas aeruginosa; [4]): 41 mm
- inhibition zone, Staphylococcus aureus, A (Staphylococcus aureus; [2]): 12 mm
- inhibition zone, Staphylococcus aureus, B (Staphylococcus aureus; [3]): 19 mm
- inhibition zone, Staphylococcus aureus, C (Staphylococcus aureus; [4]): 23 mm
- inhibition zone, Aspergillus flavus, A (Aspergillus flavus; [2]): 24 mm
- inhibition zone, Aspergillus flavus, B (Aspergillus flavus; [3]): 27 mm
- inhibition zone, Aspergillus flavus, C (Aspergillus flavus; [4]): 38 mm
- inhibition zone, Chrysosporium keratinophilum, A [1, 2]: 23 mm
- inhibition zone, Chrysosporium keratinophilum, B [1, 3]: 28 mm
- inhibition zone, Chrysosporium keratinophilum, C [1, 4]: 42 mm
- melting point: 107 to 109 °C
